Read-outs that look alike come from different tables or passages of the source.
Assays:
PTP-1B = biological target: T1, PTP-1B (Homo sapiens, UniProt P18031); test: PTP1B counterscreen (Millipore kit, malachite green detection); assay type: biochemical; conditions: FIG. 15; read-out: IC50 against PTP-1B
T1 construct: purchased Millipore 539736
T1 sequence (P18031 1-435): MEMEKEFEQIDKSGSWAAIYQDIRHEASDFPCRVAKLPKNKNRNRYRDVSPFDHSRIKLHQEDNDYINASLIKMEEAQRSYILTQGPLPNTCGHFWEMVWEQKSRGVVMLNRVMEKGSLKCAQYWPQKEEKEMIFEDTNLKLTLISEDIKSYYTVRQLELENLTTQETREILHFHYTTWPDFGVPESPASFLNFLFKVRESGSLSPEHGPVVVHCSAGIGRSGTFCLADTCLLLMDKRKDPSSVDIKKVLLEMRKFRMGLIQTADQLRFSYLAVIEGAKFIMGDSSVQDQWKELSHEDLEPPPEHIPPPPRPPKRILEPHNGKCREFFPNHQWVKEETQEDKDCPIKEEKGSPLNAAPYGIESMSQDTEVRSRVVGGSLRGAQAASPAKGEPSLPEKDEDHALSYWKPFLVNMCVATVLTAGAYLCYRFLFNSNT
Description: (§1) To test for 1 activity on STEP-46, a pNPP assay was employed with 1.5 μM STEP46 and 10 mM pNPP. After 30 min at room temperature, absorbance at 405 nm was measured. For comparison, MKP5-CD was tested in the pNPP assay under identical conditions. For PTP1B, the Millipore PTP1B assay kit (#539736) was performed as recommended by the manufacturer except that malachite green was used for detection.

p38α MAPK [1] = test: p38α MAPK phosphorylation in wild type MEFs; assay type: cell-based, mouse
Description: (§2) C2C12 myoblasts were cultured as described previously. Substantively, wild type (mkp-5^+/+) and MKP5-deficient (mkp-5^−/−) mouse embryo fibroblasts (MEFs) were generated from female mice at days 13-14 of pregnancy and established by spontaneous immortalization. C2C12 myoblasts and MEFs were treated with 1 at the indicated concentrations for 24 h. For immunoblotting, C2C12 myoblasts or MKP5 wild type and MKP5-deficient fibroblasts were lysed on ice in lysis buffer and clarified by centrifugation at 20,800×g at 4° C. for 20 min. Protein concentration was determined using BCA reagent according to the manufacturer's instructions (Pierce). Recombinant human TGF-β1 (240-B-002) was purchased from R&D Systems. For phospho-MAPK and MAPK immunoblotting, lysates were resolved by SDS-PAGE and transferred onto nitrocellulose membranes (Bio-Rad). Membranes were blocked with 5% nonfat dry milk or 5% BSA in Tris-buffered saline/Tween 20 (TBS-T) for 1 h at room temperature or overnight at 4° C. Primary antibodies were diluted in 5% BSA or 5% nonfat dry milk in TBS-T. MAPK and Smad2 activation were calculated as the ratio of the indicated phosphorylated MAPK or phosphorylated Smad2 to total MAPK or Smad2, respectively by direct fluorescence quantitation using the Odyssey CLx Imaging System. Images were processed with the LI-COR Image Studio Software.

ERK1/2 [2] = test: ERK1/2 phosphorylation in wild type MEFs; assay type: cell-based, mouse
Description: as §2

[3] = test system: MKP5-CD Y435A, Y435S, Y435W mutants; test: Binding and inhibition of Tyr435 mutant MKP5-CD constructs; assay type: biochemical; conditions: FIG. 3C
Description: The catalytic domain of MKP5 (MKP5-CD, residues 320-467) was inserted into a pET-28a vector for expression. Mutant constructs were generated according to the QuikChange II (Agilent) site directed mutagenesis protocol. Constructs were transformed into BL21 (DE3) cells and grown in LB containing 100 μg/mL kanamycin to an OD of 0.8. Protein expression was induced with 1 mM IPTG, and cells were harvested after overnight incubation at 22° C.
Binding interactions between MKP5-CD and 1 were carried out using microscale thermophoresis (MST) on a Monolith NT.115Pico instrument. MKP5-CD was labeled for MST using NanoTemper Monolith NTTM Protein Labeling Kit RED-NHS 2nd Generation (#MO-L011). Briefly, MKP5-CD was transferred into the provided labeling buffer and diluted to 20 μM. Dye was added in a 2-fold molar excess and allowed to incubate 30 minutes at room temperature. Excess dye was removed using the provided column equilibrated in 50 mM Tris pH 8.0, 150 mM NaCl, 0.05% Tween-20. A fixed amount of labeled wild-type or mutant MKP5-CD was combined with up to 200 μM 1 and loaded into premium capillaries. MST experiments were carried out at 40% IR power for 20 seconds. Normalized fluorescence (Fnorm) values at a given time were plotted against inhibitor concentration, and the Kd was determined by fitting with a hyperbolic binding curve. […]

MKP5-CD [4] = biological target: T2, MKP5-CD (Homo sapiens, UniProt Q9Y6W6); test: Microscale thermophoresis binding assay; conditions: fluorescently-labeled MKP5-CD, FIG. 1D; read-out: dissociation constant (Kd)
T2 construct: The catalytic domain of MKP5 (MKP5-CD, residues 320-467) was inserted into a pET-28a vector; His-tag (N, cleaved yes); made in house; host or cells: E. coli BL21 (DE3)
T2 sequence (Q9Y6W6 320-467): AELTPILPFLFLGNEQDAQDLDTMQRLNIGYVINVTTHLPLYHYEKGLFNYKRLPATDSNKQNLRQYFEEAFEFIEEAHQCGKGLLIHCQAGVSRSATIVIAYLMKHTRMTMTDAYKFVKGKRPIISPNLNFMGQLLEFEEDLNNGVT
Description: Binding interactions between MKP5-CD and 1 were carried out using microscale thermophoresis (MST) on a Monolith NT.115Pico instrument. MKP5-CD was labeled for MST using NanoTemper Monolith NTTM Protein Labeling Kit RED-NHS 2nd Generation (#MO-L011). Briefly, MKP5-CD was transferred into the provided labeling buffer and diluted to 20 μM. Dye was added in a 2-fold molar excess and allowed to incubate 30 minutes at room temperature. Excess dye was removed using the provided column equilibrated in 50 mM Tris pH 8.0, 150 mM NaCl, 0.05% Tween-20. A fixed amount of labeled wild-type or mutant MKP5-CD was combined with up to 200 μM 1 and loaded into premium capillaries. MST experiments were carried out at 40% IR power for 20 seconds. Normalized fluorescence (Fnorm) values at a given time were plotted against inhibitor concentration, and the Kd was determined by fitting with a hyperbolic binding curve. Experiments were performed in triplicate and data are presented as means±SD.

Smad2 = test: TGF-β1-mediated Smad2 phosphorylation in wild type MEFs; assay type: cell-based, mouse; conditions: TGF-β1 1 ng/ml 10 minutes
Description: as §2

ERK1/2 [5] = test: ERK1/2 activation in C2C12 myoblasts (pMAPK/MAPK immunoblot); assay type: cell-based, mouse; conditions: even at the highest concentration
Description: as §2

JNK [6] = test: JNK activation in C2C12 myoblasts (pMAPK/MAPK immunoblot); assay type: cell-based, mouse
Description: as §2

[7] = biological target: T3, catalytic domain of MKP1 (MKP1-CD) (Homo sapiens, UniProt P28562); test: Malachite green assay of MKP1-CD; assay type: biochemical
T3 construct: MKP1-CD (human aa 172-314); purchased ARVYS Proteins (Trumbull, CT)
T3 sequence (P28562 172-314): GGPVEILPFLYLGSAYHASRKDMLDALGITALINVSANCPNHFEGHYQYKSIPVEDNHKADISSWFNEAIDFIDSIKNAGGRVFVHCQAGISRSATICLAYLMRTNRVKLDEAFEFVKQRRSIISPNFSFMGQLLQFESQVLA
Description: Compound 1 selected from the screen was tested for activity against MKP1 and MKP5 using the malachite green assay. For MKP5-CD, the same conditions for the screening assay were used. For MKP1-CD, the following conditions were used: 1 μM MKP1-CD, 50 μM pTpY, 120 min at 30° C.

MKP5-CD [8] = biological target: T2, MKP5-CD; test: Phosphate sensor kinetic assay with full-length p38α MAPK as substrate; assay type: biochemical; conditions: 25 μM inhibitor, varying p38α MAPK
Description: The phosphate sensor protein (PS) was purchased from Life Technologies (Lot #1962036B). To characterize the activity of MKP5-CD against full length p38α MAPK, 5 nM MKP5-CD and 0.5 μM PS were combined in 50 mM Tris (pH 7.6), 25 mM NaCl, 0.01% Triton X100 and […] and added to a Corning #4511 384-well plate. Using an Echo 550 liquid handler (LabCyte Inc.), either 25 μM compound 1 or neat DMSO were added to a final DMSO concentration of 0.2%. Reactions were initiated with up to 300 μM p38α MAPK, a concentration approximately 5 times the KM of MKP5-CD39, and allowed to proceed at ambient temperature for 20 minutes. Fluorescence was continuously monitored by Tecan Infinite M1000 with excitation at 425 f 5 nm and emission at 454 f 5 nm. Raw fluorescence was converted to phosphate release using a standard curve generated the same day as kinetic experiments. The initial velocity was determined for each well based on reaction progress in the first 120 seconds. These velocities were then plotted against substrate concentration and fit to a mixed-mechanism inhibition curve.

JNK [9] = test: JNK phosphorylation in wild type MEFs; assay type: cell-based, mouse
Description: as §2

p38α MAPK [10] = test: p38α MAPK activation in C2C12 myoblasts (pMAPK/MAPK immunoblot); assay type: cell-based, mouse
Description: as §2

[11] = biological target: T4, MKP5-CD (catalytic domain of MKP5, residues 320-467) (Homo sapiens, UniProt Q9Y6W6); test: Malachite green phosphatase assay of MKP5-CD with p38α MAPK phosphopeptide substrate; assay type: biochemical
T4 construct: The catalytic domain of MKP5 (MKP5-CD, residues 320-467) was inserted into a pET-28a vector; His-tag (N, cleaved yes); made in house; host or cells: E. coli BL21 (DE3)
T4 sequence (Q9Y6W6 320-467): T2 sequence (Q9Y6W6 320-467)
Description: A small molecule collection was screened for activity against MKP5-CD using a malachite green assay in 384-well format. MKP5-CD and p38α MAPK phosphopeptide (DDE(Nle)(pT)G(pY)VATR) substrate were diluted into PTP buffer (50 mM Tris pH 7.2, 1 mM EDTA, 0.1% β-mercaptoethanol, 0.01% Triton X-100). The screen was performed in two distinct phases. An initial screen against a subset of the compound library was carried out in the following conditions: 1.5 μM MKP5-CD, 25 μM phosphopeptide, 30 min at 37° C. A second follow-up screen was performed with the following modifications: 0.5 μM MKP5-CD, 50 μM phosphopeptide, 15 min at 30° C. Test compounds (20 nL) were dispensed with either an Aquarius (Tecan) pintool system (initial phase) or Echo 550 (Labcyte) acoustic dispenser (follow-up phase). In both phases, the test compound concentration was 20 μM in the 10 μL reaction and the final DMSO was 0.2%. […] The plate was incubated for 10-15 min at room temperature to allow color development and absorbance at 620 nm measured. The signal-to-background (S/B) ratio was calculated from the mean absorbance of vehicle-treated wells with and without enzyme (negative and positive controls; n=32 per condition). Percent inhibition of test wells was calculated from the mean positive and negative controls on each plate. […]

STEP-46 = biological target: T5, STEP-46 (Homo sapiens, UniProt P54829); test: STEP-46 pNPP counterscreen; assay type: biochemical; conditions: pNPP assay, FIG. 15; read-out: IC50 against STEP-46
T5 sequence (P54829 1-565): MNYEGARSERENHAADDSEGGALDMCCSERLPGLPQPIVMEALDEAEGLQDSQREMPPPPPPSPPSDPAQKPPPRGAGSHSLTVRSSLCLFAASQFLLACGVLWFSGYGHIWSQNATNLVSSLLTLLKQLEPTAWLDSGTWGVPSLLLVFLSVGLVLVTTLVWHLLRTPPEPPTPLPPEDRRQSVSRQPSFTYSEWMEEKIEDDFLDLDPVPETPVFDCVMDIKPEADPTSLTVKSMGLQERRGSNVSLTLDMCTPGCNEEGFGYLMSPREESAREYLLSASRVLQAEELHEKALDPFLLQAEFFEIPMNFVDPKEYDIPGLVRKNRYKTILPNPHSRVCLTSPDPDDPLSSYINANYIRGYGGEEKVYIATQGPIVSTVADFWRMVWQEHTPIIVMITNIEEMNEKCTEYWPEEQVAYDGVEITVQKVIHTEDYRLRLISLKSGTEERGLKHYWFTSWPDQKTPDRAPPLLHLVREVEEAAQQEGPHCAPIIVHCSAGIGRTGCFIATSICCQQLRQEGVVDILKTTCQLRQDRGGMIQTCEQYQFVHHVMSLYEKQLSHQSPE
Description: as §1

## CSc1scc2c1-c1nc(SCC(=O)C(C)(C)C)ncc1CC2 [Compound 1, 3,3-Dimethyl-1-((9-(methylthio)-5,6-dihydrothieno[3,4-h]quinazolin-2-yl)thio)butan-2-one]
PTP-1B
  IC50: > 100 µM
p38α MAPK [1]
  phosphorylation of p38α MAPK: dose-dependent increase
ERK1/2 [2]
  phosphorylation of ERK1/2: not ERK1/2
[3]
  binding to and inhibition of Tyr435 mutants: only capable of binding to and inhibiting the activity of the Y435W mutant
MKP5-CD [4]
  Kd: 1 ± 0.2 µM
Smad2
  TGF-β1-mediated Smad2 phosphorylation: inhibited
ERK1/2 [5]
  activation status of ERK1/2: did not alter
JNK [6]; 24 h
  JNK activation: increased upon treatment of C2C12 myoblasts but with less effectiveness as compared with p38 MAPK
JNK [6]; highest concentration
  induction of JNK activity: 1.4 fold
[7]; FIG. 1F, read-out: IC50 towards the catalytic domain of MKP1
  IC50: > 60 µM
[7]; MKP1 versus MKP5
  reduction in potency for MKP1 relative to MKP5: 16 fold
MKP5-CD [8]
  mode of inhibition: mixed competitive mode of inhibition
  α of mixed-mechanism inhibition fit: ≈ 4.6
JNK [9]
  phosphorylation of JNK: dose-dependent increase
p38α MAPK [10]; 24 h
  activation of p38α MAPK: increased in a dose-dependent manner
p38α MAPK [10]; highest concentration
  induction of p38α MAPK activity: 2.0 fold
[11]
  IC50: ~4.2 µM
[11]; resynthesized compound, p38α MAPK phosphopeptide substrate, FIG. 1E, read-out: IC50 against MKP5-CD
  IC50: 3.9 ± 0.6 µM
STEP-46
  IC50: > 200 µM
